From ChEMBL document CHEMBL3804813, “Discovery and optimization of new benzofuran derivatives against p53-independent malignant cancer cells through inhibition of HIF-1 pathway” (Bioorg Med Chem Lett, 2016)

Tests used:
[1] = Antiproliferative activity against human HCT116 cells expressing wild type p53 assessed as growth inhibition after 72 hrs by MTT assay; assay type: functional, cell-based; conditions: HCT-116, 72 h
[2] = Antiproliferative activity against human p53-null HCT116 cells assessed as growth inhibition after 72 hrs by MTT assay; assay type: functional, cell-based; conditions: HCT-116, 72 h
[3] = system: MCF7; assay: Antiproliferative activity against human MCF7 cells assessed as growth inhibition after 72 hrs by MTT assay; assay type: functional, cell-based; conditions: MCF7, 72 h
[4] = Antiproliferative activity against human MDA-MB-435S cells assessed as growth inhibition after 72 hrs by MTT assay; assay type: functional, cell-based
[5] = target: Hypoxia-inducible factor 1-alpha (Homo sapiens) (UniProt Q16665); assay: Inhibition of HIF-1 (unknown origin) expressed in human MCF7 cells co-transfected with hypoxia reporter plasmid p(HRE)3-Luc at 10 uM measured under hypoxia condition after 24 hrs by dual-luciferase reporter assay; assay type: cell-based
[6] = system: MCF7; assay: Cytotoxicity against human MCF7 cells co-transfected with hypoxia reporter plasmid p(HRE)3-Luc at 20 uM; assay type: cell-based; conditions: mcf7, 20 µM

Chain of Hypoxia-inducible factor 1-alpha (Homo sapiens) (Q16665 whole entry, looked up): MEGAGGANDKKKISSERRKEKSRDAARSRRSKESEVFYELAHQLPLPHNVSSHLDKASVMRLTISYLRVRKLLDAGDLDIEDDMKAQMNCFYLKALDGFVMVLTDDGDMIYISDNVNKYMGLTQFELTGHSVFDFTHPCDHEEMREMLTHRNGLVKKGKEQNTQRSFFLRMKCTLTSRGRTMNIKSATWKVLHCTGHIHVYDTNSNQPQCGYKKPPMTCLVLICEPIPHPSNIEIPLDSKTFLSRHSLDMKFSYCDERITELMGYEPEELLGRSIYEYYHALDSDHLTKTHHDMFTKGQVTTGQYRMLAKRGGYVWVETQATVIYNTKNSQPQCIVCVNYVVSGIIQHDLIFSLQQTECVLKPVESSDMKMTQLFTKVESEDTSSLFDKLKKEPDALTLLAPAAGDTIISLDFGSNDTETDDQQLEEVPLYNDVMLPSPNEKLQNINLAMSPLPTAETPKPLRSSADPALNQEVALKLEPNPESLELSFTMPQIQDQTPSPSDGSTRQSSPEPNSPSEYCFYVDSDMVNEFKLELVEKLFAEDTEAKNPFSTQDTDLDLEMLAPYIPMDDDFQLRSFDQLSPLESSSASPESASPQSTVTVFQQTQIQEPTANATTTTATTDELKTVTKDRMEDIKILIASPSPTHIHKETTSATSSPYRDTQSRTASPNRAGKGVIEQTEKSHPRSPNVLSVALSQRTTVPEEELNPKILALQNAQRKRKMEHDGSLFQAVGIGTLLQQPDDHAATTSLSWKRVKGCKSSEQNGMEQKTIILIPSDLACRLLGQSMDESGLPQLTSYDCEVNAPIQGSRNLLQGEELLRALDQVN

CNCCNC(=O)c1oc2ccc(N(Cc3ccc(Cl)cc3)S(=O)(=O)c3ccc(Cl)cc3)cc2c1C
IC50 [1]: 1810 nM | IC50 [2]: 4030 nM | IC50 [3]: 5670 nM | IC50 [4]: 1630 nM | inhibition [5]: 22.2% | Activity [6]: Toxic
